Our source for the IC50 values is patent publication US12365655B2, “Compounds” (CTXT PTY LTD, priority 2018, dated 2025).

One test addresses TIP60-KAT5 (Homo sapiens, UniProt Q92993). The experiment in a line: Acetyltransferase biochemical assay (AlphaScreen), KAT5. (In general: Alpha assays give light when donor and acceptor beads are brought close together.)
The target in a further test is HBO-KAT7 (Homo sapiens, UniProt O95251). The experiment in a line: Acetyltransferase biochemical assay (AlphaScreen), KAT7.
Chain of HBO-KAT7 (O95251 with tags, fused parts or gaps): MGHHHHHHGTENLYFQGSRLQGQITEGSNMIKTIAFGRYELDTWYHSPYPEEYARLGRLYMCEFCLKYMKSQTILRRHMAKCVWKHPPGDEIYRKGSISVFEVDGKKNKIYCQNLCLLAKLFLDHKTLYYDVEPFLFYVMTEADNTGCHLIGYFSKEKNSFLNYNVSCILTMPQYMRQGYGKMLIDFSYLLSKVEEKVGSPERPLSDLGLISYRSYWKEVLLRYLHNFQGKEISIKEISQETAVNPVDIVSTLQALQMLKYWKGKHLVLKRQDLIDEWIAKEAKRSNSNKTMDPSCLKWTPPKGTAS
For the next test, the target named is MOZ-KAT6A (Homo sapiens, UniProt Q92794, A567V). Put plainly: Acetyltransferase biochemical assay (AlphaScreen), KAT6A.
Chain of MOZ-KAT6A (Q92794 with tags, fused parts or gaps A567V): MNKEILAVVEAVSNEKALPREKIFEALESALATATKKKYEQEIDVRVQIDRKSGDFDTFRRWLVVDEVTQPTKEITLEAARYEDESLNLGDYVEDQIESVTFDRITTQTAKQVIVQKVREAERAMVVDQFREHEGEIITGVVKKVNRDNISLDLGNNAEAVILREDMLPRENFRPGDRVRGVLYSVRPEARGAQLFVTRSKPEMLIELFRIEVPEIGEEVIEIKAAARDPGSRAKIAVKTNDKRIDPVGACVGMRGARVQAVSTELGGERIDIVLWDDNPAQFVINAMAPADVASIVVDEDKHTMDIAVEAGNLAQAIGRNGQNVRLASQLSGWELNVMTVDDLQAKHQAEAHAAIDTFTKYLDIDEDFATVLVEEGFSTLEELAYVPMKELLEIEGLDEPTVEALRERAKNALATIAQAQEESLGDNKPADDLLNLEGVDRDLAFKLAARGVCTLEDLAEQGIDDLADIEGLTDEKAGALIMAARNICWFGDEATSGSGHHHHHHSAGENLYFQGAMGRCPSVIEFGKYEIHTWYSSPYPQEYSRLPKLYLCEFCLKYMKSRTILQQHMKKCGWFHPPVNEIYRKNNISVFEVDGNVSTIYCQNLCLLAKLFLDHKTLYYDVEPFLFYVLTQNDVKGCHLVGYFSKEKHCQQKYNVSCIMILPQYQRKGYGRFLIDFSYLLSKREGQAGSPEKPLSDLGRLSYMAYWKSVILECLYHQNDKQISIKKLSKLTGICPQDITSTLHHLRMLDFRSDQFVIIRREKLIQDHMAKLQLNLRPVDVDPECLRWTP

The structures appear in SMILES notation. Some results are limits rather than exact numbers.

Chain of TIP60-KAT5 (Q92993 with tags, fused parts or gaps isoform Q92993-2): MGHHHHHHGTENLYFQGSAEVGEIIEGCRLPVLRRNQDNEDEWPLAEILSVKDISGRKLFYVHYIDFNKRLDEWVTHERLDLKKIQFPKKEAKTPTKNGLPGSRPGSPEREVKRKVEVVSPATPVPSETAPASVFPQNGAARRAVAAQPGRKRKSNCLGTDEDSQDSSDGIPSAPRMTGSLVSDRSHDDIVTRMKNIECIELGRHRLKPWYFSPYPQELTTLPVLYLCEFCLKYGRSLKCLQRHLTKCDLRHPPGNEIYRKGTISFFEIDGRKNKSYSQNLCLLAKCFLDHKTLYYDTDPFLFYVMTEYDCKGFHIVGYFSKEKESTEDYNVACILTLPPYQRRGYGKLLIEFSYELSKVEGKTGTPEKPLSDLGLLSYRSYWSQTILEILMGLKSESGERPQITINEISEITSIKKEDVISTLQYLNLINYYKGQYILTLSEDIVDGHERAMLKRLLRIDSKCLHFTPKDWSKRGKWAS

With `COc1cc(C)cc(C)c1S(=O)(=O)Nc1noc2cccc(OC)c12` [Example 72, 2-methoxy-N-(4-methoxybenzo[d]isoxazol-3-yl)-4,6-dimethylbenzene sulfonamide], the values for the IC50 against TIP60-KAT5, on HBO-KAT7 and against MOZ-KAT6A were more than 125 µM, 11.4 µM and 46.2 µM, respectively.
`O=S(=O)(Nc1noc2cccc(Cl)c12)c1cccc2ccncc12` [Example 159, N-(4-chlorobenzo[d]isoxazol-3-yl)isoquinoline-8-sulfonamide]: the IC50 against TIP60-KAT5 is more than 125 µM; at HBO-KAT7, 37.6 µM; against MOZ-KAT6A, 66.6 µM.
For the compound `COc1cccc(OCCO)c1S(=O)(=O)Nc1noc2cccc(OC)c12` [Example 220, 2-(2-Hydroxyethoxy)-6-methoxy-N-(4-methoxybenzo[d]isoxazol-3-yl)benzenesulfonamide], the 50% inhibitory concentration (IC50) was more than 125 µM on TIP60-KAT5, 11 µM on HBO-KAT7 and 3.5 µM against MOZ-KAT6A.
On the same counts, the results for `O=S(=O)(Nc1noc2cccc(Cl)c12)c1cccc2c1OCC2` [Example 180, N-(4-Chlorobenzo[d]isoxazol-3-yl)-2,3-dihydrobenzofuran-7-sulfonamide] are 25.5 µM, 1.76 µM and 9.44 µM.
Take `COc1cc(-c2cc(OC)c3c(NS(=O)(=O)c4c(OC)cccc4OC)noc3c2)ccn1` [Example 249, 2,6-Dimethoxy-N-(4-methoxy-6-(2-methoxypyridin-4-yl)benzo[d]isoxazol-3-yl)benzenesulfonamide]: the figures for the IC50 against TIP60-KAT5, on HBO-KAT7 and on MOZ-KAT6A were 69.2 µM, 0.889 µM and 1.27 µM, respectively.
For `CCc1ccc(OC)c(S(=O)(=O)Nc2noc3ccc(Cl)cc23)c1` [Example 150], the concentration for half-maximal inhibition (IC50) against TIP60-KAT5 worked out at 50 µM; on HBO-KAT7, 8.04 µM; on MOZ-KAT6A it was 4.97 µM.
On the same counts, the results for `O=S(=O)(Nc1noc2cccc(Cl)c12)c1ccccc1Oc1ccccc1` [Example 4, N-(4-chlorobenzo [d]isoxazol-3-yl)-2-phenoxybenzene sulfonamide] are 35.2 µM, 5.17 µM and 6.22 µM.
As for `O=S(=O)(Nc1noc2cccc(Cl)c12)c1cccc2scnc12` [Example 15, N-(4-chlorobenzo [d]isoxazol-3-yl)benzo [d]thiazole-4-sulfonamide], the IC50 on TIP60-KAT5 was found to be 7.29 µM; at HBO-KAT7 it was 1.46 µM; on MOZ-KAT6A, 1.91 µM.
On to `CCc1ccc(S(=O)(=O)Nc2noc3ccccc23)cc1` [Example 53, N-(benzo[d]isoxazol-3-yl)-4-ethylbenzene sulfonamide], for which the concentration for half-maximal inhibition (IC50) against TIP60-KAT5 was more than 125 µM; against HBO-KAT7, more than 125 µM; against MOZ-KAT6A, 90.7 µM.
Take `CCc1ccc(OC)c(S(=O)(=O)Nc2noc3cccc(C(F)(F)F)c23)c1` [Example 121, 5-Ethyl-2-methoxy-N-(4-(trifluoromethyl)benzo[d]isoxazol-3-yl)benzenesulfonamide]: the IC50 turned out to be 29 µM against TIP60-KAT5, 5.21 µM on HBO-KAT7 and 1.24 µM against MOZ-KAT6A.
Turning to `COC(=O)c1ccc(OC)c(S(=O)(=O)Nc2noc3ccccc23)c1` [Example 50, methyl 3-(N-(benzo[d]isoxazol-3-yl)sulfamoyl)-4-methoxy benzoate], the IC50 at TIP60-KAT5 is more than 125 µM; against HBO-KAT7 it was more than 125 µM; on MOZ-KAT6A, 123 µM.
Consider `COc1cccc(OCc2ccccc2)c1S(=O)(=O)Nc1noc2cccc(OC)c12` [Example 222, 2-(Benzyloxy)-6-methoxy-N-(4-methoxybenzo[d]isoxazol-3-yl)benzenesulfonamide], for which the half-maximal inhibitory concentration (IC50) on TIP60-KAT5 was found to be 26.8 µM; against HBO-KAT7, 1.42 µM; at MOZ-KAT6A, 0.655 µM.
On the same counts, the results for `O=S(=O)(Nc1noc2cccc(Cl)c12)c1cccc2nsnc12` [Example 7, N-(4-chlorobenzo [d]isoxazol-3-yl)benzo[c][1,2,5]thiadiazole-4-sulfonamide] are more than 125 µM, 14.2 µM and 62.7 µM.
As for `COc1cc(CO)cc(OC)c1S(=O)(=O)Nc1noc2cccc(OC)c12` [Example 209, 4-(Hydroxymethyl)-2,6-dimethoxy-N-(4-methoxybenzo[d]isoxazol-3-yl)benzenesulfonamide], the values for the IC50 at TIP60-KAT5, against HBO-KAT7 and against MOZ-KAT6A were 28.7 µM, 1.05 µM and 2.03 µM, respectively.
Turning to `O=S(=O)(Nc1noc2cccc(Cl)c12)c1ccc(F)c(F)c1F` [Example 117, N-(4-Chlorobenzo[d]isoxazol-3-yl)-2,3,4-trifluorobenzenesulfonamide], the results for the IC50 at TIP60-KAT5, at HBO-KAT7 and on MOZ-KAT6A were more than 125 µM, more than 125 µM and 85.4 µM, respectively.
Take `CCc1ccc(OC)c(S(=O)(=O)Nc2noc3cc(Br)ccc23)c1` [Example 138]: the IC50 on TIP60-KAT5 is 5.11 µM; against HBO-KAT7, 3.68 µM; on MOZ-KAT6A it was 2.89 µM.
As for `CCc1ccc(OC)c(S(=O)(=O)Nc2noc3c(C4CC4)cccc23)c1` [Example 189], the IC50 at TIP60-KAT5 came to 32 µM; against HBO-KAT7, 8.02 µM; against MOZ-KAT6A, 4.35 µM.
On the same counts, the results for `COc1ccccc1S(=O)(=O)Nc1noc2ccccc12` [Example 58, N-(benzo[d]isoxazol-3-yl)-2-methoxybenzene sulfonamide] are more than 125 µM, 16.6 µM and 28.4 µM.
As to `O=S(=O)(Nc1noc2cccc(Cl)c12)c1c(F)cccc1F` [Example 29, N-(4-chlorobenzo [d]isoxazol-3-yl)-2,6-difluorobenzene sulfonamide], the IC50 against TIP60-KAT5 is more than 125 µM; against HBO-KAT7 it was 94.1 µM; on MOZ-KAT6A it was more than 125 µM.
As for `CCc1ccc(OC)c(S(=O)(=O)Nc2noc3ccc(Br)c(Cl)c23)c1` [Example 128, N-(5-bromo-4-chlorobenzo[d]isoxazol-3-yl)-5-ethyl-2-methoxy benzenesulfonamide], the IC50 against TIP60-KAT5 turned out to be 6.3 µM; against HBO-KAT7, 0.618 µM; at MOZ-KAT6A it was 0.25 µM.
As for `COc1cccc(OC)c1S(=O)(=O)Nc1noc2cc(-c3cccnc3)cc(OC)c12` [Example 246, 2,6-Dimethoxy-N-(4-methoxy-6-(pyridin-3-yl)benzo[d]isoxazol-3-yl)benzenesulfonamide], the values for the IC50 against TIP60-KAT5, against HBO-KAT7 and against MOZ-KAT6A were 27.1 µM, 0.478 µM and 0.676 µM, respectively.
Take `COc1cccc(OCC2CC2)c1S(=O)(=O)Nc1noc2cccc(OC)c12` [Example 215, 2-(Cyclopropylmethoxy)-6-methoxy-N-(4-methoxybenzo[d]isoxazol-3-yl)benzenesulfonamide]: the half-maximal inhibitory concentration (IC50) was more than 125 µM at TIP60-KAT5, 16.6 µM against HBO-KAT7 and 4.47 µM against MOZ-KAT6A.
For `CCc1ccc(OC)c(S(=O)(=O)Nc2noc3cccc(CC)c23)c1` [Example 199], the values for the half-inhibitory concentration (IC50) against TIP60-KAT5, at HBO-KAT7 and against MOZ-KAT6A were 14.9 µM, 0.632 µM and 0.709 µM, respectively.
Take `COCc1cccc(S(=O)(=O)Nc2noc3cccc(Cl)c23)c1` [Example 2, N-(4-chlorobenzo [d]isoxazol-3-yl)-3-(methoxymethyl) benzenesulfonamide]: the half-maximal inhibitory concentration (IC50) against TIP60-KAT5 is more than 125 µM; against HBO-KAT7, 15.5 µM; on MOZ-KAT6A, 94.6 µM.
With `COCc1ccc2c(NS(=O)(=O)c3c(OC)cccc3OC)noc2c1` [Example 103, 2,6-Dimethoxy-N-(6-(methoxymethyl)benzo [d]isoxazol-3-yl)benzenesulfonamide], the IC50 against TIP60-KAT5 came out at 69.3 µM; against HBO-KAT7 it was 5.93 µM; against MOZ-KAT6A, 0.81 µM.
With `CCOc1cccc2onc(NS(=O)(=O)c3cc(CC)ccc3OC)c12` [Example 112], the 50% inhibitory concentration (IC50) on TIP60-KAT5 worked out at 16.5 µM; at HBO-KAT7, 3.01 µM; against MOZ-KAT6A, 1.46 µM.
`COc1ccccc1S(=O)(=O)Nc1noc2cccc(F)c12` [Example 156]: the half-inhibitory concentration (IC50) at TIP60-KAT5 is more than 125 µM; at HBO-KAT7, 1.97 µM; on MOZ-KAT6A it was 1.54 µM.
Consider `O=S(=O)(Nc1noc2cccc(Cl)c12)c1cc(OCC(F)(F)F)ccc1OCC(F)(F)F` [Example 10, N-(4-chlorobenzo [d]isoxazol-3-yl)-2,5-bis(2,2,2-trifluoroethoxy) benzenesulfonamide], for which the IC50 at TIP60-KAT5 was 93.7 µM; on HBO-KAT7, 54.1 µM; against MOZ-KAT6A, 17.5 µM.
Take `O=S(=O)(Nc1noc2ccccc12)c1ccc(Cl)cc1Cl` [Example 62, N-(benzo[d]isoxazol-3-yl)-2,4-dichlorobenzene-sulfonamide]: the half-maximal inhibitory concentration (IC50) against TIP60-KAT5 is more than 125 µM; at HBO-KAT7, 70.6 µM; at MOZ-KAT6A, 43.7 µM.
On to `CCc1ccc(CC)c(S(=O)(=O)Nc2noc3ccccc23)c1` [Example 56, N-(benzo[d]isoxazol-3-yl)-2,5-diethylbenzene sulfonamide], for which the values for the IC50 against TIP60-KAT5, on HBO-KAT7 and on MOZ-KAT6A were more than 125 µM, more than 125 µM and 72.8 µM, respectively.
As to `COc1ccc(C(C)C)cc1S(=O)(=O)Nc1noc2cccc(Cl)c12` [Example 41, N-(4-chlorobenzo [d]isoxazol-3-yl)-5-isopropyl-2-methoxybenzene sulfonamide], the IC50 turned out to be 65.1 µM on TIP60-KAT5, 11.8 µM against HBO-KAT7 and 4.27 µM at MOZ-KAT6A.
As for `CCc1ccc(OC)c(S(=O)(=O)Nc2noc3cc(C)ccc23)c1` [Example 193, 5-Ethyl-2-methoxy-N-(6-methylbenzo[d]isoxazol-3-yl)benzenesulfonamide], the results for the concentration for half-maximal inhibition (IC50) on TIP60-KAT5, against HBO-KAT7 and at MOZ-KAT6A were 53.1 µM, 15.5 µM and 1.95 µM, respectively.
For `O=S(=O)(Nc1noc2cccc(Cl)c12)c1ccc(OC(F)(F)F)cc1` [Example 23, N-(4-chlorobenzo [d]isoxazol-3-yl)-4-(trifluoromethoxy) benzenesulfonamide] the same measures were 72.9 µM, 23.9 µM and 21.8 µM.
On the same counts, the results for `COCc1ccccc1S(=O)(=O)Nc1noc2cccc(OC)c12` [Example 88, N-(4-methoxybenzo[d]isoxazol-3-yl)-2-(methoxymethyl)benzene-sulfonamide] are more than 125 µM, 7.51 µM and 41.2 µM.

In general, IC50 refers to the point on the concentration scale where inhibition reaches its midpoint. A low value points to greater potency in that assay.
